Measurements as given in patent publication US20100098746A1, “COMPOSITIONS AND METHODS FOR TREATING PERIODONTAL DISEASE COMPRISING CLONIDINE, SULINDAC AND/OR FLUOCINOLONE” (Warsaw Orthopedic, Inc., priority 2008, published 2010).

Columns and labels:
murine RAW NO+ cell line = conditions: for inhibitory effects on osteoclast differentiation and resorption: clonidine tested at 100, 10, 1, 0.1 μM, sulindac at 140, 70, 35, 17.5, 8.75 μM, RANK L 30 ng/ml; for lowest inhibitory concentration: osteoclast differentiation and resorption
Procedure: The purpose of this set of experiments was to narrow the number of periodontal candidates by determining the lowest dose of the drug that inhibits or blocks osteoclast differentiation and/or resorption.
Cell culture complete media was prepared by adding 10% FBS to high glucose DMEM. • 2. A nitric oxide-containing murine RAW NO+ cell line, f frozen in DMSO-containing medium under liquid nitrogen, was used for these assays. • 3. Cells were thawed in a 37° C. water bath and resuspended in complete media (see #1 above). • 4. The cells were plated in a 175 cm^2 polystyrene, white top, non-adherent culture flask at a density of 1×10^4 cells/cm^2 and allowed to settle overnight (Day-1, Table G). • 5. The media was changed approximately 24 hours after the initial plating (Day 0, Table G). • 6. After approximately two days of proliferation, the cells were harvested with a cell scraper, collected in a 50 mL conical tube and centrifuged at 1000 rpm to pellet the cells. • 7. The cell pellets were resuspended in 4 mL complete media, counted with a hemocytometer and plated at a density of 0.125×10^4 cells/0.25 ml/well in a 16 well osteologic assay slide (Day 1, Table G). • 8. The cells were allowed to adhere for 24 hours, the media was removed and fresh differentiation media was prepared that contained complete media+RANK L (30 ng/ml; Pepro Tech #315-11)+/−drug (Day 2, Table G). […] Step 8 was repeated on days 5 and 7 (Table G). • 10. On day 9 the plates were harvested by removing the media, rinsing with dH2O and treated with bleach for 7 minutes. • 11. The bleach was disposed of in the drug waste container and the wells and gaskets were removed from the slide. • 12. The plates were rinsed with H2O 5 times, dried and analyzed for matrix degradation as described below
The clonidine concentrations tested were 100 μM, 10 μM, 1 μM, 0.1 μM and the sulindac concentrations tested were 140 μM, 70 μM, 35 μM, 17.5 μM, and 8.75 μM.

[1] = tested on: mechanical allodynia, Bennett Model; experiment: Rat chronic constriction injury model, von Frey test of mechanical allodynia (sulindac); type: in vivo, Wistar rat; conditions: intraperitoneally at 0.4 mg/kg/day
Procedure: (§1) The efficacy of a 5 Month Sulindac/Polymer Drug Depot in the Rat Chronic Constriction Injury Model was evaluated. The animal model was the Bennett Model (Wistar rat). The purpose: To determine whether a 5 month polymer sulindac-eluting depot can improve pain associated behavioral responses in a rat model of neuropathic pain.
(§2) Experimental Design: Four loose chromic gut ligatures, 1 mm apart, were tied around the common sciatic nerve at mid-thigh. Each animal received treatment of test or control article—according to the dosing described in Table 10.
(§3) To date, the present study was conducted for a period of 57 days and employed the following two tests: (1) the Hargreaves test on days 7, 14, 21, 28, 35, 42, 49, and 56; and (2) the von Frey test on days 8, 15, 22, 29, 36, 43, 50, and 57.

[2] = tested on: thermal hyperalgesia, Bennett Model; experiment: Rat chronic constriction injury model, Hargreaves test of thermal hyperalgesia (sulindac); type: in vivo, Wistar rat; conditions: intraperitoneally at 0.4 mg/kg/day
Procedure: as §1, §2, §3

[3] = tested on: neuropathic pain, CCI model; experiment: 2-month chronic constriction injury (CCI) model of neuropathic pain (fluocinolone), thermal paw withdrawal latency and mechanical threshold; type: in vivo
Procedure: A 2-month chronic constriction injury (CCI) model of neuropathic pain was used to evaluate different formulations of a corticosteroid, fluocinolone, encapsulated in bioerodable polymers compared to fluocinolone given subcutaneously (SC). Different formulations as provided in Table B below were evaluated for reducing pain-associated behaviors: Thermal paw withdrawal latency was evaluated at baseline 7, 14, 21, 28, 35, 42, 49, and 56 days post-operatively, while mechanical threshold was evaluated at 8, 15, 22, 29, 36, 43, 50, and 57 days post-operatively. […] The pain of periodontal disease is due to the inflammation. […] Mechanical allodynia was measured using von Frey monofilaments (Stoelting, Wood Dale, Ill.) with varying stiffness (2.0-15.0 g) on Days 1, 8, 15, 22, 29, 36, 43, 50 and 57 as described previously. […] The 50% paw withdrawal threshold response was determined by a sequential increasing and/or decreasing of the stimulus strength (the “up-down method” of Dixon). […] The 50% paw withdrawal threshold was calculated using the formula: 10 (Xf+kd)/10,000, where Xf is the final von Frey filament used (log units), k is a value that analyzes the response pattern (taken from the table published by Chaplan et al.), and d is the mean difference between stimuli (log units). The mean and standard error of the mean (SEM) were determined for each treatment group.

[4] = tested on: thermal hyperalgesia, Bennett Model; conditions: subcutaneously at 0.02 mg/kg/day
Procedure: as §1, with “five” for “5”, “Clonidine/Polymer” for “Sulindac/Polymer”, “clonidine-eluting” for “sulindac-eluting”, “pain with an inflammatory component.” for “pain.”
(§4) Experimental Design: Four loose chromic gut ligatures, 1 mm apart, were tied around the common sciatic nerve at mid-thigh. Each animal received treatment of test or control article—according to the dosing described in Table 5.
(§5) The present study was conducted for a period of 64 days and employed the following two tests: (1) the Hargreaves test; and (2) the von Frey test. The Hargreaves Tests of Thermal Hyperalgesia were conducted on days 7, 14, 21, 28, 35, 42, 49, 56 and 63. The von Frey monofilament test of mechanical allodynia (performed the day following Thermal testing) were conducted on days-8, 15, 22, 29, 36, 43, 50, 57 and 64.

[5] = tested on: mechanical allodynia, Bennett Model; conditions: subcutaneously at 0.02 mg/kg/day
Procedure: as §1, with “five” for “5”, “Clonidine/Polymer” for “Sulindac/Polymer”, “clonidine-eluting” for “sulindac-eluting”, “pain with an inflammatory component.” for “pain.”
as §4, §5

[6] = tested on: inflammation induced in minipigs; conditions: high dose clonidine (150 μg), injected; days 1, 3 and 4 post-surgery
Text: In a separate experiment, inflammation was induced in minipigs and the minipigs were given clonidine, bupivacaine, or morphine. The surgical site was reviewed for inflammation while the minipigs were anesthesized and on day 4. Scoring of inflammation was reviewed in the area of incision for redness with the following scores: 0—no redness; 1—slightly red limited to area of incision; 2—massive spread redness and swelling with the following scores 0—no swelling; 1—slightly swelling; 3—massive swelling. Redness and swelling were summed up so the minimum score is 0 and maximum score is 4. […] The low dose clonidine given was 75 μg.

Row | SMILES | inhibitory effects on osteoclast differentiation and resorption (murine RAW NO+ cell line) | lowest inhibitory concentration (murine RAW NO+ cell line) [µM] | pain behavioral response, mechanical allodynia, compared to unloaded polymer depots (85/15 PLGA Control) [1] | pain behavioral response, thermal hyperalgesia, compared to unloaded polymer depot (85/15 PLGA Control) [2] | pain threshold [3] | pain behavioral response, thermal hyperalgesia, compared to unloaded polymer depots [4] | pain behavioral response (percentage of baseline), thermal hyperalgesia ([4]; unloaded polymer depots 45%) [%] | pain behavioral response, mechanical allodynia, compared to unloaded polymer depots [5] | osteoclast differentiation and bone resorption compared to RANK only treated control wells (murine RAW NO+ cell line; clonidine at 100 μM and 10 μM) | inflammation score (redness + swelling, 0 to 4) [6]
1 | CC1=C(CC(=O)O)c2cc(F)ccc2/C1=C\c1ccc([S+](C)[O-])cc1 (stereo not drawn) [sulindac] | significant inhibitory effects | 140.3 | reduced the behavioral response | consistently reduced the behavioral response |  |  |  |  |  | 
2 | CC1(C)O[C@@H]2C[C@H]3[C@@H]4C[C@H](F)C5=CC(=O)C=C[C@]5(C)[C@@]4(F)[C@@H](O)C[C@]3(C)[C@]2(C(=O)CO)O1 [fluocinolone, 6α-,9α-Difluoro-16 α-hydroxyprednisolone 16,17-acetonide] |  |  |  |  | reduced pain threshold |  |  |  |  | 
3 | Clc1cccc(Cl)c1N=C1NCCN1 [clonidine, 2,6-dichloro-N-2-imidazolidinyldenebenzenamine] | significant inhibitory effects | 10 |  |  |  | consistently reduced the behavioral response | 58 | reduced the behavioral response | significantly decreased | very low
